In experiment [1] the test system is RPP-MYC orthotopic model. In words: Treatment study in RPP-MYC orthotopic SCLC model. It is filed as in vivo, mouse. The protocol: (§1) All animal studies were reviewed and approved by the Institutional Animal Care and Use Committee (IACUC) at the New York University Langone Health (NYULH) and Dana-Farber Cancer Institute (DFCI). From 6 weeks of age, mice were induced with adenovirus-Cre recombinase (Ad-Cre) by intratracheal intubation to allow cre-lox-mediated recombination of floxed Rb1, p53 and p130 alleles. For syngeneic orthotopic models, ultrasound-guided transthoracic injection was performed using 200,000 RPP631, RP or RPP-MYC cells in 30 μL PBS directly into the lung of 6 to S-week-old C57BL/6 (Jackson Laboratory, Stock No: 000664). For OT-IT cell assay, OT-I mice were purchased from the Jackson Laboratory (Stock No: 003S31). Both males and females mice were used and all mice were maintained in accordance with the respective NYULH and DFCI on the care, welfare, and treatment of laboratory animals. […]
(§2) Animals were anesthetized with isoflurane to perform MRI of the lung field using BioSpec USR70/30 horizontal bore system (Bruker) to scan 24 consecutive sections. Tumor volumes within the whole lung were quantified using 3-D slicer software to reconstruct MRI volumetric measurements as described previously. […]

The test system of experiment [2] is CDK7-Cyclin H complexes. The experiment is described as follows: Competitive pulldown assay (Bio-THZ1), Cyclin H. Format: cell-based, mouse, human. To be noted: SCLC cells (RPP631, DMS79) treated 6 hours. The protocol: Bio-THZ1 pulldown experiments followed by western blotting of enriched proteins was performed as described in Kwiatkowski, et al., Nature, 2014, 511, 616-620. Briefly, cells were treated with YKL-5-124 or DMSO for 6 hr (in vitro) or 72 hr (in vivo). Following treatment, cells were washed twice with cold PBS and then lysed in the following lysis buffer: 50 mM TrisHCI pH 8.0, 150 mM NaCl, 1% NP-40, 5 mM EDTA, 1 mM DTT, and protease/phosphatase cocktails. Following clearance, lysates were treated with biotinylated THZ1 for pulldown overnight at 4° C. Lysates were further incubated at room temperature for 3 hr to increase the efficiency of covalent bond formation. Lysates were then incubated with streptavidin agarose for pulldown for an additional 2-3 hr at 4° C. Agarose beads were washed 5 times with lysis buffer and then boiled in 2×SDS at 95° C. SDS-page resolved precipitated proteins were probed for the indicated proteins.

In experiment [3] the test system is RP orthotopic model. The experiment is described as follows: Treatment study in RP orthotopic SCLC model. Format: in vivo, mouse. Here is the method:
as §1, §2

Each structure is given as a SMILES string.

Take `C=CC(=O)Nc1ccc(C(=O)Nc2n[nH]c3c2CN(C(=O)N[C@H](CN(C)C)c2ccccc2)C3(C)C)cc1` [YKL-5-124]: the “tumor response / tumor growth (MRI tumor volume)” value in experiment [1] and in experiment [3] (RP orthotopic model) was “notably delayed tumor growth” throughout. Besides, the “block of Cyclin H pulldown” value in experiment [2] is “efficiently prevented”. In experiment [3] (RP model, vs control), the “added median survival benefit” value is given as “approximately 30 days”.
